Source: patent US4690933A, “Pyridylvinyl-1H tetrazole having antihistamine activity” (priority 1984, dated 1987)
Where two headings read alike, the source gives them in different places. One block for each compound: values may come before it.

What was measured:
[1] = background statement, no test described; cited from earlier work
[2] = target: T1, histamine; longitudinal muscle from the intact ileum of guinea-pigs (Cavia porcellus, UniProt P31389); test: In vitro antihistaminic activity: histamine concentration-response curves, isolated guinea-pig ileum longitudinal muscle (Schild plot); format: cell-based; conditions: negative log of the concentration of antagonist which shifts the control histamine concentration-response curve 2X to the right, one hour incubation with test compound, 60 min
T1 construct: The longitudinal muscle was isolated from the intact ileum of guinea-pigs; from tissue; host or cells: longitudinal muscle of the ileum of guinea-pigs (Harley, male 250-400 g)
T1 sequence (P31389 whole entry): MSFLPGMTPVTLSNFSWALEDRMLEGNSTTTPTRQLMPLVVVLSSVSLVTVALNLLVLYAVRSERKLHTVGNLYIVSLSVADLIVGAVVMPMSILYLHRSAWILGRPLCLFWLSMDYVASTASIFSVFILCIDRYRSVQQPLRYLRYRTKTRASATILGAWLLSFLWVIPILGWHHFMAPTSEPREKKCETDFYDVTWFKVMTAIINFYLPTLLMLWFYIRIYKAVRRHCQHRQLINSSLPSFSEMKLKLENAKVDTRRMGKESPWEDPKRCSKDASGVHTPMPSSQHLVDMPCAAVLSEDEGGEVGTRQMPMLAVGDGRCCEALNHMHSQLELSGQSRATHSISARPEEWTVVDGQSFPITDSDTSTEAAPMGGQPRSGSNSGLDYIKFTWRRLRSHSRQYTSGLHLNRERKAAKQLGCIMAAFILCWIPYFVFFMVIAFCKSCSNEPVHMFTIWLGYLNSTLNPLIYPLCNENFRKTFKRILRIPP
Procedure: A.Invitro antihistaminic activity: The longitudinal muscle was isolated from the intact ileum of guinea-pigs (Harley, male 250-400 g) and placed in an organ bath under 300 mg tension. After one hour of equilibration, cumulative concentration-response curves (Van Rossum, J. M., Arch. Int. Pharmacodyn. Ther. 143 299-330, 1963) to histamine wee obtained. Following washing, the tissues were incubated for one hour with the test compound and then a second histamine concentration-response curve was run. Shifts to the right of the agonist concentration-response curve produced by the antagonists were used to construct Schild plots (Arunlakshana, O. and Schild, H. O., Br. J. Pharmacol: 14, 48-58, 1959). Regression of Log (dr-1) on Log/B/, where dr is an equiactive response in the presence and absence of antagonist and /B/ is the molar concentration of antagonist, allowed an estimate of pA2, i.e. the negative log of the concentration of antagonist which shifts the control histamine concentration-response curve 2X to the right.
The antihistaminic activities of compounds of the present invention are detailed in table A below.

[3] = cited from earlier work
[4] = cited from earlier work; remark: listed apart in the source

Structure (SMILES): O=C(O)c1ccc(/C(=C\CN2CCCC2)c2ccccn2)cc1 [(E)-1-(4-carboxyphenyl)-1-(2-pyridyl)-3-pyrrolidinoprop-1-ene]
- antihistamine activity [1]: little or no antihistamine activity

- pA2 [2]: 8.7
Structure (SMILES): Cc1ccc(/C(=C\CN2CCCC2)c2cccc(/C=C/c3nnn[nH]3)n2)cc1 [Example 1, 5-(E-6-[3-Pyrrolidino-1-(4-tolyl)prop-1E-enyl]-2-pyridylvinyl)-1H-tetrazole]

- pA2 [2]: 7.1
Structure (SMILES): O=S(=O)(O)c1cccc(/C(=C/CN2CCCC2)c2ccccc2)c1 [Example 2, (E)-3-(1-phenyl-3-pyrrolidinoprop-1-enyl)-benzenesulphonic Acid]

- pA2 [2]: 7.3
Structure (SMILES): O=S(=O)(O)c1cccc(C(CCN2CCCC2)c2ccccc2)c1 (stereo not drawn) [Example 3, 3-(1-phenyl-3-pyrrolidinopropyl)benzenesulphonic acid]

Structure (SMILES): CC(CN1c2ccccc2Sc2ccccc21)N(C)C (stereo not drawn) [promethazine]
- sedation or drowsiness ([3]; in some patients): cause sedation or drowsiness in some patients

Structure (SMILES): COc1ccc(CN(CCN(C)C)c2ccccn2)cc1 [pyrilamine]
- sedation or drowsiness ([3]; human, in vivo): cause sedation or drowsiness in some patients

Structure (SMILES): Cc1ccc(/C(=C\CN2CCCC2)c2ccccn2)cc1 [triprolidine, (E)-1-(4-methylphenyl)-1-(2-pyridyl)-3-pyrrolidinoprop-1-ene]
- antihistamine activity [1]: one of the most potent antihistamines available
- sedation or drowsiness ([3]; human, in vivo): cause sedation or drowsiness in some patients
- metabolism in man [4]: metabolized in man to (E)-1-(4-carboxyphenyl)-1-(2-pyridyl)-3-pyrrolidinoprop-1-ene
